≈ marks a conversion by molar mass, not a printed value.
Columns and labels:
[1] = Solubility of hydroxycinnamic acids in pure solvents (orbital shaker 72 h, HPLC); assay type: physicochemical; conditions: for Increase of solubility in EGMME with respect to 101: EGMME vs 101; for solubility at 72 h: organic solvent or mixture, thermodynamic from solid
Protocol: (§1) Amber vials were used to protect the samples from light. To ensure reliability, all of the experiments were performed in triplicate. The samples were shaken in a biological orbital shaker at 100 rpm for 72 h at 25 °C.
Before the samples were measured, they must be sonicated to avoid the formation of dimers and ensure the uniformity of the peaks.
(§2) The column used for the quantification was a C18 Phenomenex Luna ([…] × 5 μm).
Calibration curves were generated using solutions varying in the concentrations of the three studied acids within the HPLC detection range (0–0.006 mg). These solutions were sonicated to ensure uniformity of the peaks and then injected into the HPLC. The linearity of the curves was evaluated by linear regression analysis. Details of the calibrations are gathered in the Supporting Information (Figures S27–S29).
Following this period, the solution was checked for saturation and filtered. The filtered solution was then immediately diluted for hydroxycinnamic acid quantification by HPLC.

physchem = conditions: for solubility at 72 h: 25 °C, thermodynamic from solid, Solubility (mg/mL)
Protocol: as §1, §2

[2] = comparison solvents; cited from earlier work
[3] = pure 1,3-propylene glycol (PG), 25 °C, solvent PG (1,3-propylene glycol), 298 K, read-out: Solubility
[4] = pure ethylene glycol (EG), 25 °C, solvent EG (ethylene glycol), 298 K, read-out: Solubility
[5] = pure solvent 3F00, 25 °C, solvent 3F00, Tables S-1 to S-3, read-out: Solubility
[6] = pure solvent 3i00, 25 °C, solvent 3i00, Tables S-1 to S-3, read-out: Solubility
[7] = pure solvent 3i03i, 25 °C, solvent 3i03i, 298 K, read-out: Solubility
[8] = pure solvent 100, 25 °C, solvent 100, Tables S-1 to S-3, read-out: Solubility
[9] = pure solvent 101, 25 °C, solvent 101, Tables S-1 to S-3, read-out: Solubility
[10] = pure solvent 111, 25 °C, solvent 111, Tables S-1 to S-3, read-out: Solubility
[11] = pure solvent 111 triether, 25 °C, solvent 111 triether, 298 K, read-out: Solubility
[12] = pure solvent 200, 25 °C, solvent 200, Tables S-1 to S-3, read-out: Solubility
[13] = pure solvent 202, 25 °C, solvent 202, 298 K, read-out: Solubility
[14] = pure solvent 202, 25 °C, solvent 202, Tables S-1 to S-3, read-out: Solubility
[15] = pure solvent 300, 25 °C, solvent 300, Tables S-1 to S-3, read-out: Solubility
[16] = pure solvent 400, 25 °C, solvent 400, Tables S-1 to S-3, read-out: Solubility
[17] = pure solvent 400, 25 °C, solvent 400, Tables S-13 to S-15, read-out: Experimental solubility
[18] = pure solvent 404, 25 °C, solvent 404, Tables S-1 to S-3, read-out: Solubility
[19] = pure solvent EG, 25 °C, solvent EG, Tables S-1 to S-3, read-out: Solubility
[20] = pure solvent EGDME, 25 °C, solvent EGDME, Tables S-1 to S-3, read-out: Solubility
[21] = pure solvent EGMME, 25 °C, solvent EGMME, Tables S-1 to S-3, read-out: Solubility
[22] = pure solvent PG, 25 °C, solvent PG, Tables S-1 to S-3, read-out: Solubility

SMILES	Increase of solubility in EGMME with respect to 101 [1] [%]	solubility at 72 h [1, 3] [mg/mL]	solubility at 72 h [1, 4] [mg/mL]	solubility at 72 h [1, 5] [mg/mL]	solubility at 72 h [1, 6] [mg/mL]	solubility at 72 h [1, 7] [mg/mL]	solubility at 72 h [1, 8] [mg/mL]	solubility at 72 h [1, 9] [mg/mL]	solubility at 72 h [1, 10] [mg/mL]	solubility at 72 h [1, 11] [mg/mL]	solubility at 72 h [1, 12] [mg/mL]	solubility at 72 h [1, 13] [mg/mL]	solubility at 72 h [1, 14] [mg/mL]	solubility at 72 h [1, 15] [mg/mL]	solubility at 72 h [1, 16] [mg/mL]	solubility at 72 h [1, 17] [mg/mL]	solubility at 72 h [1, 18] [mg/mL]	solubility at 72 h [1, 19] [mg/mL]	solubility at 72 h [1, 20] [mg/mL]	solubility at 72 h [1, 21] [mg/mL]	also measured
O=C(O)/C=C/c1ccc(O)c(O)c1 [Caffeic acid]	21	36.5 (≈ 203 mM)	55.8 (≈ 310 mM)	5.5 (≈ 30.5 mM)	45.8 (≈ 254 mM)	25.2 (≈ 140 mM)	75.7 (≈ 420 mM)	81.1 (≈ 450 mM)	32.5 (≈ 180 mM)	32.5 (≈ 180 mM)	61.9 (≈ 344 mM)	34 (≈ 189 mM)	12 (≈ 66.6 mM)	44.5 (≈ 247 mM)	33.5 (≈ 186 mM)	33.4 (≈ 185 mM)	11.1 (≈ 61.6 mM)	42 (≈ 233 mM)	32.5 (≈ 180 mM)	98.9 (≈ 549 mM)	solubility at 72 h ([1]; pure ethylene glycol dimethyl ether (EGDME), 25 °C, solvent EGDME (ethylene glycol dimethyl ether), 298 K, read-out: Solubility): 32.5 mg/mL (≈ 180 mM); solubility at 72 h ([1]; pure solvent 3i03i, 25 °C, solvent 3i03i, Tables S-1 to S-3, read-out: Solubility): 25.1 mg/mL (≈ 139 mM); solubility at 72 h ([1]; pure solvent 111, 25 °C, solvent 111, Tables S-13 to S-15, read-out: Experimental solubility): 32.5 mg/mL (≈ 180 mM); solubility at 72 h ([1]; pure solvent 303, 25 °C, solvent 303, Tables S-1 to S-3, read-out: Solubility): 17.2 mg/mL (≈ 95.5 mM); solubility at 72 h [1, 22]: 27.4 mg/mL (≈ 152 mM); solubility at 72 h (physchem): 85 mg/mL (≈ 472 mM); solubility at 72 h (physchem; water): 0.8 mg/mL (≈ 4.44 mM); Increase in the solubility compared to pure 100 (physchem; 72 h): 20%; Increase of solubility in the water/101 mixture compared to the solubility in water (physchem; 72 h): 140 fold
O=C(O)/C=C/c1ccc(O)cc1 [Coumaric acid, coumaric acid]	45	91.3 (≈ 556 mM)	103 (≈ 627 mM)	17.2 (≈ 105 mM)	112 (≈ 685 mM)	85.7 (≈ 522 mM)	141 (≈ 861 mM)	176 (≈ 1070 mM)	110 (≈ 668 mM)	109 (≈ 664 mM)	137 (≈ 832 mM)	122 (≈ 743 mM)	120 (≈ 731 mM)	113 (≈ 687 mM)	95.1 (≈ 579 mM)	93.1 (≈ 567 mM)	49.3 (≈ 300 mM)	103 (≈ 627 mM)	161 (≈ 980 mM)	256 (≈ 1560 mM)	solubility at 72 h ([1]; pure solvent 3F00, 25 °C, solvent 3F00, 298 K, read-out: Solubility): 19.6 mg/mL (≈ 119 mM); solubility at 72 h ([1]; pure solvent 3F03F, 25 °C, solvent 3F03F, 298 K, read-out: Solubility): 2 mg/mL (≈ 12.2 mM); solubility at 72 h ([1]; pure solvent 3F03F, 25 °C, solvent 3F03F, Tables S-1 to S-3, read-out: Solubility): 2.7 mg/mL (≈ 16.4 mM); solubility at 72 h ([1]; pure solvent 100, 25 °C, solvent 100, Tables S-13 to S-15, read-out: Experimental solubility): 142 mg/mL (≈ 863 mM); solubility at 72 h ([1]; pure solvent 101, 25 °C, solvent 101, 298 K, read-out: Solubility): 176 mg/mL (≈ 1070 mM); solubility at 72 h ([1]; pure solvent 101, 25 °C, solvent 101, Tables S-13 to S-15, read-out: Experimental solubility): 177 mg/mL (≈ 1080 mM); solubility at 72 h ([1]; pure solvent 303, 25 °C, solvent 303, 298 K, read-out: Solubility): 74.6 mg/mL (≈ 454 mM); solubility at 72 h [1, 22]: 91.1 mg/mL (≈ 555 mM); Solubility ([1]; solvent EG (ethylene glycol), 298 K): 102 mg/mL (≈ 621 mM); solubility at 72 h (physchem): 203 mg/mL (≈ 1240 mM); solubility at 72 h (physchem; water): 0.4 mg/mL (≈ 2.44 mM); Increase of solubility in the water/101 mixture compared to the solubility in water (physchem; 72 h): 500 fold
OCC(O)CO [glycerol]	–	–	–	–	–	–	–	–	–	–	–	–	–	–	–	–	–	–	–	–	Viscosity [2]: 1200 cP

Reference: paper PMC12175220, “Eco-Friendly Solvents for Bioactives: Solubilization of Hydroxycinnamic Acids in Glycerol-Derived Ethers” (ACS Sustainable Chemistry & Engineering, 2025)
